Where two headings read alike, the source gives them in different places. Starred links: 1 amine or outer side, 2 acyl side, 3 side chain; linkers in the order of their positions; H or OH if unused. Positions of bridges follow the written chain, without caps; N, C: chain ends. Non-standard residues stand in square brackets, D forms with d. Residues, ends and D or L forms follow the SMILES beside them. Groups on a side chain read outwards from the residue. ξ: configuration not given here. *: point of attachment. Trp(βS-Me) = C[C@@H](c1c[nH]c2ccccc12)[C@H](N)C(=O)O; 2Furoyl(5-aminomethyl) = O=C(c1ccc(CN[*:1])o1)[*:2]; Phe(4-guanidino) = N=C(N)Nc1ccc(C[C@H](N)C(=O)O)cc1; Ala(imidazol-2-yl) = N[C@@H](Cc1ncc[nH]1)C(=O)O; Arg(NO2) = N=C(NCCC[C@H](N)C(=O)O)N[N+](=O)[O-]; Phe(4-COOH) = N[C@@H](Cc1ccc(C(=O)O)cc1)C(=O)O; Trp(5-F) = N[C@@H](Cc1c[nH]c2ccc(F)cc12)C(=O)O; Phe(4-CH2NH2) = NCc1ccc(C[C@H](N)C(=O)O)cc1; X4 = O=C(CCSCc1cccc(CSCCN[*:1])c1)[*:2]; γGlu = O=C(O)[C@H](CCC(=O)[*:2])N[*:1]; mXylylene = c1cc(C[*:1])cc(C[*:2])c1; AEF = NCCOc1ccc(C[C@H](N)C(=O)O)cc1; X48 = CC(N[*:1])c1ncc(C(=O)[*:2])s1; Adipoyl = O=C(CCCCC(=O)[*:2])[*:1]; Palmitoyl = CCCCCCCCCCCCCCCC(=O)*; X6 = O=C(Cc1ccc(CN[*:2])cc1)[*:1]; ξAla(CF3) = NC(CC(F)(F)F)C(=O)O; Aad = N[C@@H](CCCC(=O)O)C(=O)O; Aoc(2) = CCCCCC[C@H](N)C(=O)O; Suc = O=C(CCC(=O)[*:2])[*:1]; αMeP = C[C@@]1(C(=O)O)CCCN1; Dab = NCC[C@H](N)C(=O)O; Dap = NC[C@H](N)C(=O)O; AEEA = NCCOCCOCC(=O)O; GABA = NCCCC(=O)O; Mpa = O=C(O)CCS

The values below come from patent US11530244B2, “Cyclic polypeptides for PCSK9 inhibition” (priority 2018, dated 2022).

This assay addresses PCSK9 (Homo sapiens (Human), UniProt Q8NBP7). Briefly: PCSK9 Alexa FRET Standard assay (displacement of AlexaFluor647 tagged cyclic peptide Reagent A). The format is binding. Summed up:
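TR-FRET displacement: 0.5 nM biotinylated PCSK9 with 1.25 nM Strep-Eu and 20 nM AlexaFluor-tagged cyclic peptide (final) in 50 mM HEPES pH 7.4, 0.15 M NaCl, 5 mM CaCl2, 0.01% BSA, 0.01% P20, ≥2 h at room temperature. IC50 from sigmoidal fit, converted to Ki via peptide KD; falling Eu counts flagged false positives.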

[1] abbreviates: PCSK9 Alexa FRET Standard assay, 0.5 nM PCSK9, 20 nM AF cyclic peptide Reagent A, read-out: IC50.

Chain of PCSK9 (Q8NBP7 153-692): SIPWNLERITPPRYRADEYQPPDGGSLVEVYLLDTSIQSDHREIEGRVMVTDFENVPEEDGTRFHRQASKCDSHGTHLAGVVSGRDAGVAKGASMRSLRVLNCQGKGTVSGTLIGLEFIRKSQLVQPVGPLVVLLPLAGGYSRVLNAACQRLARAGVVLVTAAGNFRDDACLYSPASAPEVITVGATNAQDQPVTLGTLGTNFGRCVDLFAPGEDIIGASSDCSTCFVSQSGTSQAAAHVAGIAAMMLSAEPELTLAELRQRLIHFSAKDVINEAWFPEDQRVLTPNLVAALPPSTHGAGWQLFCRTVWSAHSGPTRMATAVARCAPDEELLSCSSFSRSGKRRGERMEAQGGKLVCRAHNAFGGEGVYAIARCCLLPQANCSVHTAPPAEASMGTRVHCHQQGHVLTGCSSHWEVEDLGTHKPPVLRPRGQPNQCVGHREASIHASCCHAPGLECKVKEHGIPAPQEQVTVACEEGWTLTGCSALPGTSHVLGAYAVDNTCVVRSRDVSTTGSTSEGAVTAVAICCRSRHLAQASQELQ

Broadly, the IC50 is the concentration needed to halve the response being measured. Take `COc1ccc(C[C@@H]2NC(=O)[C@H](Cc3cnc[nH]3)NC(=O)[C@H](CC(=O)O)NC(=O)[C@H](Cc3c[nH]c4ccc(F)cc34)NC(=O)[C@H](Cc3c[nH]c4ccc(F)cc34)NC(=O)[C@@H](C)NC(=O)[C@H](CCCC(=O)O)NC(=O)CCSCc3cccc(c3)CSCCNC(=O)[C@]3(C)CCCN3C2=O)cc1` [Compound 427] (cyclo([Aad][dA][Trp(5-F)][Trp(5-F)]DHY(Me)[αMeP][X4])): the IC50 under setting [1] fell in the range of 21 to 50 µM.

As to `C[C@@]12CCCN1C(=O)[C@H](Cc1ccc(O)cc1)NC(=O)[C@H](Cc1cnc[nH]1)NC(=O)[C@H](CC(=O)O)NC(=O)[C@H](Cc1c[nH]c3ccc(F)cc13)NC(=O)[C@H](Cc1c[nH]c3ccc(F)cc13)NC(=O)C1=CC=C(CNC(=O)CCSCc3cccc(c3)CSC[C@@H](C(N)=O)NC2=O)O1` [Compound 428] ([Mpa][2Furoyl(5-aminomethyl)][Trp(5-F)][Trp(5-F)]DHY[αMeP]C-NH2; linker 1-9 via mXylylene), under setting [1], the IC50 lay in the range of 21 to 50 µM. On to `C[C@H]1NC(=O)[C@H](CCCCN)NC(=O)CCSCc2cccc(c2)CSC[C@@H](C(N)=O)NC(=O)[C@]2(C)CCCN2C(=O)[C@H](Cc2ccc(O)cc2)NC(=O)C2=CC=C(CNC(=O)[C@H](Cc3c[nH]c4ccc(F)cc34)NC(=O)[C@H](Cc3c[nH]c4ccc(F)cc34)NC1=O)O2` [Compound 429] ([Mpa]K[dA][Trp(5-F)][Trp(5-F)][2Furoyl(5-aminomethyl)]Y[αMeP]C-NH2; linker 1-9 via mXylylene), for which the IC50 under setting [1] was 0.1 to 1 µM. As to `C[C@@H](c1c[nH]c2ccccc12)[C@@H]1NC(=O)CNC(=O)[C@H](CCCCN)NC(=O)CCSCc2cccc(c2)CSC[C@@H](C(N)=O)NC(=O)[C@]2(C)CCCN2C(=O)[C@H](Cc2ccc(O)cc2)NC(=O)[C@H](Cc2cnc[nH]2)NC(=O)[C@H](CC(=O)O)NC(=O)[C@H](Cc2c[nH]c3ccc(F)cc23)NC1=O` [Compound 430] ([Mpa]KG[Trp(βS-Me)][Trp(5-F)]DHY[αMeP]C-NH2; linker 1-10 via mXylylene), the IC50 under setting [1] lay within 1 to 12.1 µM. For the molecule `CC(=O)N[C@H]1CCCC/C=C/CO[C@H]2C[C@@H](C(N)=O)N(C2)C(=O)[C@H](Cc2ccc(O)cc2)NC(=O)[C@H](Cc2cnc[nH]2)NC(=O)[C@H](CC(=O)O)NC(=O)[C@H](Cc2c[nH]c3ccc(F)cc23)NC(=O)[C@H](Cc2c[nH]c3ccc(F)cc23)NC(=O)CNC(=O)[C@H](CCCCN)NC1=O` [Compound 431], the 50% inhibitory concentration (IC50) under setting [1] was in the range of 0.00011 to 0.1 µM.

With `COc1ccc(C[C@@H]2NC(=O)[C@H](Cc3cnc[nH]3)NC(=O)[C@H](CC(=O)O)NC(=O)[C@H](Cc3c[nH]c4ccc(F)cc34)NC(=O)[C@H](Cc3c[nH]c4ccc(F)cc34)NC(=O)[C@@H](C)NC(=O)CCCNC(=O)c3ccc(cc3)C[C@@H](C(N)=O)NC(=O)[C@]3(C)CCCN3C2=O)cc1` [Compound 432] ([GABA][dA][Trp(5-F)][Trp(5-F)]DHY(Me)[αMeP][Phe(4-COOH)]-NH2; lactam N-9), under setting [1], the IC50 lay within 1 to 12.1 µM. Still for that read-out and setting: the result for `COc1ccc(C[C@@H]2NC(=O)[C@H](Cc3cnc[nH]3)NC(=O)[C@H](CC(=O)O)NC(=O)[C@H](Cc3c[nH]c4ccc(F)cc34)NC(=O)[C@H](Cc3c[nH]c4ccc(F)cc34)NC(=O)[C@@H](C)NC(=O)[C@H](NC(C)=O)CCCCNC(=O)Cc3ccc(cc3)CNC(=O)CCC[C@@H](C(N)=O)NC(=O)[C@]3(C)CCCN3C2=O)cc1` [Compound 433] (Ac-[dK][dA][Trp(5-F)][Trp(5-F)]DHY(Me)[αMeP][Aad]-NH2; linker 1-9 via X6) reads 0.1 to 1 µM. Regarding `CC1NC(=O)CCSCc2cccc(c2)CSC[C@@H](C(N)=O)NC(=O)[C@]2(C)CCCN2C(=O)[C@H](Cc2ccc(O)cc2)NC(=O)[C@H](Cc2cnc[nH]2)NC(=O)[C@H](CC(=O)O)NC(=O)[C@H](Cc2c[nH]c3ccc(F)cc23)NC(=O)[C@H](Cc2c[nH]c3ccc(F)cc23)NC(=O)C2=CN=C1S2` (stereo partly shown) [Compound 434] ([Mpa][X48][Trp(5-F)][Trp(5-F)]DHY[αMeP]C-NH2; linker 1-9 via mXylylene), the IC50 under setting [1] was 21 to 50 µM. Still for that read-out and setting: the result for `COc1ccc(C[C@@H]2NC(=O)[C@H](Cc3cnc[nH]3)NC(=O)[C@H](CC(=O)O)NC(=O)[C@H](Cc3c[nH]c4ccc(F)cc34)NC(=O)[C@H](Cc3c[nH]c4ccc(F)cc34)NC(=O)[C@@H](C)NC(=O)CCC(=O)NCCOc3ccc(cc3)C[C@@H](C(N)=O)NC(=O)[C@]3(C)CCCN3C2=O)cc1` [Compound 436] ([dA][Trp(5-F)][Trp(5-F)]DHY(Me)[αMeP][AEF]-NH2; linker N-8 via Suc) reads 21 to 50 µM.

Regarding `NC(=O)[C@@H]1Cc2ccc(cc2)CNC(=O)CCCCC(=O)NCC(=O)N[C@@H](Cc2c[nH]c3ccc(F)cc23)C(=O)N[C@@H](Cc2c[nH]c3ccc(F)cc23)C(=O)N[C@@H](CC(=O)O)C(=O)N[C@@H](Cc2cnc[nH]2)C(=O)N[C@@H](Cc2ccc(O)cc2)C(=O)N1` [Compound 438] (G[Trp(5-F)][Trp(5-F)]DHY[Phe(4-CH2NH2)]-NH2; linker N-7 via Adipoyl), under setting [1], the half-inhibitory concentration (IC50) was in the range of 21 to 50 µM. Still for that read-out and setting: the result for `CCCCCCCCCCCCCCCC(=O)N[C@@H](CCC(=O)NCCOCCOCC(=O)NCCOCCOCC(=O)NCC[C@H](NC(=O)CNC(=O)CNC(=O)[C@@H]1CSCc2cccc(c2)CSCCC(=O)N[C@@H](CCCCN)C(=O)N[C@H](C)C(=O)N[C@@H](Cc2c[nH]c3ccc(F)cc23)C(=O)N[C@@H](Cc2c[nH]c3ccc(F)cc23)C(=O)N[C@@H](CC(=O)O)C(=O)N[C@@H](Cc2cnc[nH]2)C(=O)N[C@@H](Cc2ccc(O)cc2)C(=O)N2CCC[C@@]2(C)C(=O)N1)C(N)=O)C(=O)O` [Compound 439] ([Mpa]K[dA][Trp(5-F)][Trp(5-F)]DHY[αMeP]CGG[Dab]([AEEA-AEEA-γGlu-Palmitoyl])-NH2; linker 1-10 via mXylylene) reads 21 to 50 µM. On the same count and under the same terms, under `COc1ccc(C[C@@H]2NC(=O)[C@H](Cc3ncc[nH]3)NC(=O)[C@H](CC(=O)O)NC(=O)[C@H](Cc3c[nH]c4ccc(F)cc34)NC(=O)[C@H](Cc3c[nH]c4ccc(F)cc34)NC(=O)[C@@H](C)NC(=O)[C@H](Cc3ccc(N=C(N)N)cc3)NC(=O)CCSCc3cccc(c3)CSCCNC(=O)[C@]3(C)CCCN3C2=O)cc1` [Compound 441] (cyclo(D[Ala(imidazol-2-yl)]Y(Me)[αMeP][X4][Phe(4-guanidino)][dA][Trp(5-F)][Trp(5-F)])) stands 21 to 50 µM; under `CCCCCC[C@@H]1NC(=O)CCSCc2cccc(c2)CSCCNC(=O)[C@]2(C)CCCN2C(=O)[C@H](Cc2ccc(OC)cc2)NC(=O)[C@H](Cc2ncc[nH]2)NC(=O)[C@H](CC(=O)O)NC(=O)[C@H](Cc2c[nH]c3ccc(F)cc23)NC(=O)[C@H](Cc2c[nH]c3ccc(F)cc23)NC(=O)[C@@H](C)NC1=O` [Compound 442] (cyclo([Aoc(2)][dA][Trp(5-F)][Trp(5-F)]D[Ala(imidazol-2-yl)]Y(Me)[αMeP][X4])), 0.00011 to 0.1 µM; under `COc1ccc(C[C@@H]2NC(=O)[C@H](Cc3ncc[nH]3)NC(=O)[C@H](CC(=O)O)NC(=O)[C@H](Cc3c[nH]c4ccc(F)cc34)NC(=O)[C@H](Cc3c[nH]c4ccc(F)cc34)NC(=O)[C@@H](C)NC(=O)C(CC(F)(F)F)NC(=O)CCSCc3cccc(c3)CSCCNC(=O)[C@]3(C)CCCN3C2=O)cc1` (stereo partly shown) [Compound 443] (cyclo(D[Ala(imidazol-2-yl)]Y(Me)[αMeP][X4][ξAla(CF3)][dA][Trp(5-F)][Trp(5-F)])), 21 to 50 µM. The same measure, in the same setting: the result for `COc1ccc(C[C@@H]2NC(=O)[C@H](Cc3ncc[nH]3)NC(=O)[C@H](CC(=O)O)NC(=O)[C@H](Cc3c[nH]c4ccc(F)cc34)NC(=O)[C@H](Cc3c[nH]c4ccc(F)cc34)NC(=O)[C@@H](C)NC(=O)C(CC(F)(F)F)NC(=O)CCSCc3cccc(c3)CSCCNC(=O)[C@]3(C)CCCN3C2=O)cc1` (stereo partly shown) [Compound 444] (cyclo(D[Ala(imidazol-2-yl)]Y(Me)[αMeP][X4][ξAla(CF3)][dA][Trp(5-F)][Trp(5-F)])) reads 21 to 50 µM. For the setting “IC50”, `COc1ccc(C[C@@H]2NC(=O)[C@H](Cc3ncc[nH]3)NC(=O)[C@H](CC(=O)O)NC(=O)[C@H](Cc3c[nH]c4ccc(F)cc34)NC(=O)[C@H](Cc3c[nH]c4ccc(F)cc34)NC(=O)[C@@H](C)NC(=O)[C@H](CCC/N=C(\N)N[N+](=O)[O-])NC(=O)CCSCc3cccc(c3)CSCCNC(=O)[C@]3(C)CCCN3C2=O)cc1` [Compound 445] (cyclo([Arg(NO2)][dA][Trp(5-F)][Trp(5-F)]D[Ala(imidazol-2-yl)]Y(Me)[αMeP][X4])) displayed an IC50 of 21 to 50 µM. As for `COc1ccc(C[C@@H]2NC(=O)[C@H](Cc3ncc[nH]3)NC(=O)[C@H](CC(=O)O)NC(=O)[C@H](Cc3c[nH]c4ccc(F)cc34)NC(=O)[C@H](Cc3c[nH]c4ccc(F)cc34)NC(=O)[C@@H](C)NC(=O)[C@H](CCC(N)=O)NC(=O)CCSCc3cccc(c3)CSCCNC(=O)[C@]3(C)CCCN3C2=O)cc1` [Compound 446] (cyclo(D[Ala(imidazol-2-yl)]Y(Me)[αMeP][X4]Q[dA][Trp(5-F)][Trp(5-F)])), under setting [1], the IC50 is 1 to 12.1 µM. The same measure, in the same setting: the result for `COc1ccc(C[C@@H]2NC(=O)[C@H](Cc3ncc[nH]3)NC(=O)[C@H](CC(=O)O)NC(=O)[C@H](Cc3c[nH]c4ccc(F)cc34)NC(=O)[C@H](Cc3c[nH]c4ccc(F)cc34)NC(=O)[C@@H](C)NC(=O)[C@H](CNC(=O)COCCOCCN)NC(=O)CCSCc3cccc(c3)CSCCNC(=O)[C@]3(C)CCCN3C2=O)cc1` [Compound 447] (cyclo(D[Ala(imidazol-2-yl)]Y(Me)[αMeP][X4][Dap](AEEA)[dA][Trp(5-F)][Trp(5-F)])) reads 0.1 to 1 µM. On the same count and under the same terms, under `COc1ccc(C[C@@H]2NC(=O)[C@H](Cc3ncc[nH]3)NC(=O)[C@H](CC(=O)O)NC(=O)[C@H](Cc3c[nH]c4ccc(F)cc34)NC(=O)[C@H](Cc3c[nH]c4ccc(F)cc34)NC(=O)[C@@H](C)NC(=O)[C@H](CNC(=O)COCCOCCN)NC(=O)CCSCc3cccc(c3)CSCCNC(=O)[C@]3(C)CCCN3C2=O)cc1` [Compound 448] (cyclo(D[Ala(imidazol-2-yl)]Y(Me)[αMeP][X4][Dap](AEEA)[dA][Trp(5-F)][Trp(5-F)])) stands 0.00011 to 0.1 µM.
